From ChEMBL document CHEMBL3286216, “Synthesis and biological evaluation of CHX-DAPYs as HIV-1 non-nucleoside reverse transcriptase inhibitors” (Bioorg Med Chem, 2014)

How the values were obtained:
[1] = Selectivity index, ratio CC50 for human MT4 cells to EC50 for HIV 1 3B
[2] = tested on: Human immunodeficiency virus 2; test: Antiviral activity against HIV2 ROD infected in human MT4 cells assessed as inhibition of virus-induced cytopathicity measured 5 days post viral infection by MTT assay; assay type: functional, organism-based; conditions: Human immunodeficiency virus 2, ISOLATE ROD, MT4, 120 h
[3] = Cytotoxicity against human MT4 cells by MTT assay; assay type: cell-based
[4] = tested on: Human immunodeficiency virus 1; test: Antiviral activity against HIV1 RES056 harboring RT K103N,Y181C double mutant infected in human MT4 cells assessed as inhibition of virus-induced cytopathicity measured 5 days post viral infection by MTT assay; assay type: functional, organism-based; conditions: Human immunodeficiency virus 1, RES056, MT4, 120 h
[5] = tested on: Human immunodeficiency virus 1; test: Antiviral activity against HIV1 3B infected in human MT4 cells assessed as inhibition of virus-induced cytopathicity measured 5 days post viral infection by MTT assay; assay type: functional, organism-based; conditions: Human immunodeficiency virus 1, 3B, MT4, 120 h

| SMILES | selectivity ratio ([1]; MT4 cells) | EC50 [2] | CC50 [3] | EC50 [4] | EC50 [5] | selectivity ratio ([1]; mt4) |
| --- | --- | --- | --- | --- | --- | --- |
| N#Cc1ccc(Nc2nccc(C(Cl)c3ccccc3)n2)cc1 (stereo not given) | 2340 | > 37.8 µM | 37.8 µM | > 37.8 µM | 0.016 µM | – |
| Cc1ccc(C(Cl)c2ccnc(Nc3ccc(C#N)cc3)n2)cc1 (stereo not given) | 713 | > 49.7 µM | 49.7 µM | > 49.7 µM | 0.069 µM | – |
| COc1ccc(C(Cl)c2ccnc(Nc3ccc(C#N)cc3)n2)cc1 (stereo not given) | – | > 33.6 µM | ≥ 33.6 µM | > 33.6 µM | 0.219 µM | – |
| CC(C)(C)c1ccc(C(Cl)c2ccnc(Nc3ccc(C#N)cc3)n2)cc1 (stereo not given) | 193 | > 32.9 µM | 32.9 µM | > 32.9 µM | 0.17 µM | – |
| N#Cc1ccc(Nc2nccc(C(Cl)c3cccc(F)c3)n2)cc1 (stereo not given) | 27 | > 36.8 µM | 36.8 µM | > 36.8 µM | 1.36 µM | – |
| N#Cc1ccc(Nc2nccc(C(Cl)c3cccc(Cl)c3)n2)cc1 (stereo not given) | 5160 | > 24.3 µM | 24.3 µM | > 24.3 µM | 0.005 µM | – |
| N#Cc1ccc(Nc2nccc(C(Cl)c3cccc(Br)c3)n2)cc1 (stereo not given) | 3110 | > 30.4 µM | 30.4 µM | 8.2 µM | 0.009 µM | – |
| N#Cc1ccc(Nc2nccc(C(Cl)c3ccc(F)cc3)n2)cc1 (stereo not given) | 19 | > 35.4 µM | 35.4 µM | > 35.4 µM | 1.83 µM | – |
| N#Cc1ccc(Nc2nccc(C(Cl)c3ccc(Cl)cc3)n2)cc1 (stereo not given) | 545 | > 36.1 µM | 36.1 µM | > 36.1 µM | 0.068 µM | – |
| N#Cc1ccc(Nc2nccc(C(Cl)c3ccc(Br)cc3)n2)cc1 (stereo not given) | 875 | > 32.5 µM | 32.5 µM | > 32.5 µM | 0.038 µM | – |
| N#Cc1ccc(Nc2nccc(C(Cl)c3cccc4ccccc34)n2)cc1 (stereo not given) | 56 | > 11.3 µM | 11.3 µM | > 11.3 µM | 0.202 µM | – |
| Cc1cc(C(Cl)c2ccc(C(C)(C)C)cc2)nc(Nc2ccc(C#N)cc2)n1 (stereo not given) | 173 | > 30.3 µM | 30.3 µM | > 30.3 µM | 0.174 µM | – |
| Cc1cc(C(Cl)c2ccc(F)cc2)nc(Nc2ccc(C#N)cc2)n1 (stereo not given) | 5 | > 31.1 µM | 31.1 µM | > 31.1 µM | 5.84 µM | – |
| Cc1cc(C(Cl)c2ccc(Br)cc2)nc(Nc2ccc(C#N)cc2)n1 (stereo not given) | 75 | > 31.9 µM | 31.9 µM | > 31.9 µM | 0.435 µM | – |
| Cc1cnc(Nc2ccc(C#N)cc2)nc1C(Cl)c1ccc(C(C)(C)C)cc1 (stereo not given) | 16 | > 28.7 µM | 28.7 µM | > 28.7 µM | 1.79 µM | – |
| Cc1cnc(Nc2ccc(C#N)cc2)nc1C(Cl)c1ccc(F)cc1 (stereo not given) | 4 | > 30.8 µM | 30.8 µM | > 30.8 µM | 7.88 µM | – |
| Cc1cnc(Nc2ccc(C#N)cc2)nc1C(Cl)c1ccc(Br)cc1 (stereo not given) | 95 | > 10.3 µM | 10.3 µM | > 10.3 µM | 0.109 µM | – |
| N#Cc1ccc(Nc2nccc(C(Br)c3ccccc3)n2)cc1 (stereo not given) | 348 | > 69 µM | 69 µM | > 69 µM | 0.2 µM | – |
| Cc1ccc(C(Br)c2ccnc(Nc3ccc(C#N)cc3)n2)cc1 (stereo not given) | 672 | > 31.5 µM | 31.5 µM | > 31.5 µM | 0.047 µM | – |
| CC(C)Nc1cccnc1N1CCN(C(=O)c2cc3cc(NS(C)(=O)=O)ccc3[nH]2)CC1 [DELAVIRDINE] | > 511 | – | > 43.8 µM | > 43.8 µM | 0.085 µM | – |
| O=C1Nc2ccc(Cl)cc2[C@@](C#CC2CC2)(C(F)(F)F)O1 [EFAVIRENZ] | – | – | > 6.3 µM | 0.27 µM | – | > 1140 |
| Cc1cc(C#N)cc(C)c1Oc1nc(Nc2ccc(C#N)cc2)nc(N)c1Br [ETRAVIRINE] | – | > 14.2 µM | 14.2 µM | 0.0147 µM | – | 7380 |
| Nc1ccn([C@@H]2CS[C@H](CO)O2)c(=O)n1 [LAMIVUDINE] | – | 7.2 µM | > 87.2 µM | – | 2.44 µM | > 36 |
| Cc1ccnc2c1NC(=O)c1cccnc1N2C1CC1 [NEVIRAPINE] | > 163 | – | – | > 15 µM | – | – |
| Cc1cn([C@H]2C[C@H](N=[N+]=[N-])[C@@H](CO)O2)c(=O)[nH]c1=O [ZIDOVUDINE] | – | 0.005 µM | > 93.5 µM | 0.007 µM | – | > 17000 |
